The values that follow are results of earlier work, collected in patent US6743947B1, “Electrochemically stable onium salts and electrolytes containing such for electrochemical capacitors” (The United States of America as represented by the …, priority 1999, dated 2004).

Like-named read-outs stand apart in the source and are kept apart here.

The conditions of data set [1]: room temperature.

In the case of `CC[N+](CC)(CC)CC.F[B-](F)(F)F` [Et4NBF4, tetraethylammonium tetrafluoroborate], the conductivity result is on record as “about 50 mS/cm” in data set [1] (in AN, 1.4 M) and 8.8 mS/cm in data set [1] (in PC, 0.65 M). Further, under “in acetonitrile (AN), room temperatures”, the saturated salt concentration result is recorded as “about 1.68 M”. In addition, the saturated concentration (in propylene carbonate (PC), room temperature) was 0.86 M.
